These results are taken from patent US12371426B2, “Pyridazine derivatives as SMARCA2/4 degraders” (Aurigene Discovery Technologies Limited, priority 2018, dated 2025).

As a reminder, the IC50 is the concentration that inhibits the measured activity by half.

The subject of one assay is NCI-H838 cells. Description: Anti proliferative activity in NCI-H838 cell line by Cell Titer Glo assay. The following applies: Homo sapiens, 192 h, 8 days compound incubation, CellTiter Glo, read-out: Anti-proliferative activity IC50 group (NCI-H838 cells). Format: cell-based. The procedure: Determination of Anti Proliferative Activity of Compounds in NCI-H929 and NCI-H838 Cell Lines by Cell Titer Glo® (promega) assay:
NCI-H929 (ATCC CRL-9068) or NCI-H838 (ATCC CRL-5844) cells were seeded in 96 well plate flat black clear bottom plates (Corning, Cat. No 3904) using complete RPMI-1640 media. Next day, compounds listed in the present invention were added to cells from 10 mM stocks made in DMSO (Sigma Cat no. D2650). Each concentration of compound was tested in triplicate with DMSO concentration at a final percentage not exceeding 0.3 in the cells. After the compound incubation (3 days for H929 and 8 days for H838) assay was terminated using 50 μl of CellTiter Glo® reagent (Promega, Cat. no G7572). CellTiter Glo® Luminescent reagent determines the number of viable cells based on quantitation of ATP present which is an indicator of cell number and metabolic activity. Luminescence readings were taken in Victor-3 instrument. Percent inhibition of proliferation was calculated using formula, % inhibition=100−(luminescence value of test/luminescence value of DMSO control)*100. DMSO control (0%)=Cells in complete media with DMSO; blank=Media alone containing DMSO. IC50 was calculated using graph pad prism software.
Herein group “A” refers to IC50 value lower than 1 μM, “B” refers to IC50 value between 1-10 μM (both inclusive) and “C” refers to IC50 value higher than 10 μM or less than 50% activity at 10 μM.

For assay [1], the target named is T1, SMARCA2 (Homo sapiens, UniProt P51531). Description: SMARCA2 degradation in NCI-H838 cells by Western blot. Format: cell-based. On the set-up: endogenous in cells; host or cells: NCI-H838 (ATCC CRL-5844). The note with it: 16 hours. (In western blotting, separated proteins are transferred to a membrane and probed.)
The target in assay [2] is T1, SMARCA2. Description: SMARCA2 degradation in H929 cells by Western blot. Format: cell-based. On the set-up: endogenous in cells. The following applies: 16 hours. The procedure:
(§1) Determination of SMARCA2 and SMARCA4 Degradation in H929 Cells by Western Blot:
(§2) NCI-H929 (ATCC CRL-9068) was plated in 6 well plates using complete RPMI-1640 media. Next day, compounds of present invention were added to cells from 10 mM stocks made in DMSO (Sigma Cat no. D2650). Each concentration of compound was tested with DMSO not exceeding final percentage of 0.3 in the cells. Cells were incubated with the compound for 16 hours followed by harvesting with 1× RIPA lysis buffer (Thermo Fischer, catalogue number #89900) containing protease inhibitor cocktail (Sigma catalogue number #P-8340). Equal amount of protein was loaded on SDS PAGE gel for electrophoresis. Western blot was carried out for detection of either SMARCA2 (Cell signaling technologies, catalogue number #11966) or SMARCA4 antibody (Cell signaling technologies, catalogue number #49360). Beta Actin (Santa Cruz, catalogue number #69879) was used as loading control. Percentage of SMARCA2 or SMARCA4 degradation was calculated using formula % Degradation=100−(normalized band intensity in treated sample/normalized band intensity in DMSO sample)*100.
(§3) Selected compounds of the present invention were screened in the above mentioned assay procedures for determination of % SMARCA2 and SMARCA4 degradation 100 nM and the results are summarized in below table 30.

The target in another assay is T2, SMARCA4 (Homo sapiens, UniProt P51532).
T2 construct: endogenous in cells; host or cells: NCI-H929 (ATCC CRL-9068)
Description: SMARCA4 degradation in H929 cells by Western blot. It is filed as cell-based. The note with it: 16 hours; for SMARCA4 percent degradation at 0.1 µM: NCI-H929, 100 nM. The method, then:
as §1, §2, §3

Another assay has as its system NCI-H929 cells. Description: Anti proliferative activity in NCI-H929 cell line by Cell Titer Glo assay. Format: cell-based. The note with it: Homo sapiens, 72 h, 3 days compound incubation, CellTiter Glo, read-out: Anti-proliferative activity IC50 group (NCI-H929 cells). The procedure, abridged: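 Cells seeded in complete RPMI-1640 and exposed next day to compounds in triplicate (DMSO ≤0.3% final) for 3 days (H929) or 8 days (H838). Viability by CellTiter-Glo ATP luminescence; % inhibition relative to DMSO control, IC50 from dose-response fit.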
In general terms: ATP-based viability assays read luminescence as a measure of living cells.

Assay [3] relates to SMARCA4-deficient cancer cell lines. The note with it: SMARCA2/4 bromodomain inhibitor; Cancer Res. 2015; cited from earlier work.

T1 sequence (P51531 whole entry): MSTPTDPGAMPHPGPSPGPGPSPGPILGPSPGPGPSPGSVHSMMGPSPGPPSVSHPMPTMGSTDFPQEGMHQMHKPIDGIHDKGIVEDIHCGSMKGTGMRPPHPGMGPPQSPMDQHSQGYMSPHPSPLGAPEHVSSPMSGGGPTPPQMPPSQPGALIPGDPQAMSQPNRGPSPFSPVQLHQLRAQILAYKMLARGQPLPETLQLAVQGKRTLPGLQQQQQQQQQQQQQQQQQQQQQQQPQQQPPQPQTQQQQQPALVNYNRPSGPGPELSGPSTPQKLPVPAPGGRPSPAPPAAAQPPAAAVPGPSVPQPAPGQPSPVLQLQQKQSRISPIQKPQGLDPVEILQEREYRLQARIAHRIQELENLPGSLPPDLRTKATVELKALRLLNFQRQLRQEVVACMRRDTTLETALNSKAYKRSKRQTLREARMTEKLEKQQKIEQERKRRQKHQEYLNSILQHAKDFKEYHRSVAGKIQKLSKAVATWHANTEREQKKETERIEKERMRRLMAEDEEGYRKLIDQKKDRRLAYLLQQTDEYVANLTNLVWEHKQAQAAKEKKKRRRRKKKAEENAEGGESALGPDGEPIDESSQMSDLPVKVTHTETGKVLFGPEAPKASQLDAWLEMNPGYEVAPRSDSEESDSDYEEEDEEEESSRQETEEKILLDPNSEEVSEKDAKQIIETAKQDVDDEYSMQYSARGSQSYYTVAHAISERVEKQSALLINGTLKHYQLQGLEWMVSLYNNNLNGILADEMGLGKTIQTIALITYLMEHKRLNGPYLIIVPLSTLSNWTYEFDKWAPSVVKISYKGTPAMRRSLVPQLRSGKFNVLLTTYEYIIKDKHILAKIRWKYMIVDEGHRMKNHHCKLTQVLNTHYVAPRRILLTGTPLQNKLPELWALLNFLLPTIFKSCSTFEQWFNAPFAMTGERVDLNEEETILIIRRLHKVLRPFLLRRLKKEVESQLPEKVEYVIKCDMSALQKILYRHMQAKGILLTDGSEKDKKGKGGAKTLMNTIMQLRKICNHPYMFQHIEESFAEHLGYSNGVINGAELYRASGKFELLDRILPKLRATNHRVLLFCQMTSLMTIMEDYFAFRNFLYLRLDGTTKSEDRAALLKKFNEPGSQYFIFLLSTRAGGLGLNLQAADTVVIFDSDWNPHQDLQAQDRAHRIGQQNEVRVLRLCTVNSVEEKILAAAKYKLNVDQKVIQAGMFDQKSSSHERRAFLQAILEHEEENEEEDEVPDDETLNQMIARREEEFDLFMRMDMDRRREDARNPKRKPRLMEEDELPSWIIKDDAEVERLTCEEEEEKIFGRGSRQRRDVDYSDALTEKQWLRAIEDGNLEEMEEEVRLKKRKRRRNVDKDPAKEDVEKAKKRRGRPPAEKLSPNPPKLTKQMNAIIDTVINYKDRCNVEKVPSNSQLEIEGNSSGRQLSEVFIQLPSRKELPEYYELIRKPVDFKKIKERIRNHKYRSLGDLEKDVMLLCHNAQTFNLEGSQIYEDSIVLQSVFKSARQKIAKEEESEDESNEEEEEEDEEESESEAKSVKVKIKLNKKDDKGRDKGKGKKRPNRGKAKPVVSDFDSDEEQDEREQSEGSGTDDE
T2 sequence (P51532 whole entry): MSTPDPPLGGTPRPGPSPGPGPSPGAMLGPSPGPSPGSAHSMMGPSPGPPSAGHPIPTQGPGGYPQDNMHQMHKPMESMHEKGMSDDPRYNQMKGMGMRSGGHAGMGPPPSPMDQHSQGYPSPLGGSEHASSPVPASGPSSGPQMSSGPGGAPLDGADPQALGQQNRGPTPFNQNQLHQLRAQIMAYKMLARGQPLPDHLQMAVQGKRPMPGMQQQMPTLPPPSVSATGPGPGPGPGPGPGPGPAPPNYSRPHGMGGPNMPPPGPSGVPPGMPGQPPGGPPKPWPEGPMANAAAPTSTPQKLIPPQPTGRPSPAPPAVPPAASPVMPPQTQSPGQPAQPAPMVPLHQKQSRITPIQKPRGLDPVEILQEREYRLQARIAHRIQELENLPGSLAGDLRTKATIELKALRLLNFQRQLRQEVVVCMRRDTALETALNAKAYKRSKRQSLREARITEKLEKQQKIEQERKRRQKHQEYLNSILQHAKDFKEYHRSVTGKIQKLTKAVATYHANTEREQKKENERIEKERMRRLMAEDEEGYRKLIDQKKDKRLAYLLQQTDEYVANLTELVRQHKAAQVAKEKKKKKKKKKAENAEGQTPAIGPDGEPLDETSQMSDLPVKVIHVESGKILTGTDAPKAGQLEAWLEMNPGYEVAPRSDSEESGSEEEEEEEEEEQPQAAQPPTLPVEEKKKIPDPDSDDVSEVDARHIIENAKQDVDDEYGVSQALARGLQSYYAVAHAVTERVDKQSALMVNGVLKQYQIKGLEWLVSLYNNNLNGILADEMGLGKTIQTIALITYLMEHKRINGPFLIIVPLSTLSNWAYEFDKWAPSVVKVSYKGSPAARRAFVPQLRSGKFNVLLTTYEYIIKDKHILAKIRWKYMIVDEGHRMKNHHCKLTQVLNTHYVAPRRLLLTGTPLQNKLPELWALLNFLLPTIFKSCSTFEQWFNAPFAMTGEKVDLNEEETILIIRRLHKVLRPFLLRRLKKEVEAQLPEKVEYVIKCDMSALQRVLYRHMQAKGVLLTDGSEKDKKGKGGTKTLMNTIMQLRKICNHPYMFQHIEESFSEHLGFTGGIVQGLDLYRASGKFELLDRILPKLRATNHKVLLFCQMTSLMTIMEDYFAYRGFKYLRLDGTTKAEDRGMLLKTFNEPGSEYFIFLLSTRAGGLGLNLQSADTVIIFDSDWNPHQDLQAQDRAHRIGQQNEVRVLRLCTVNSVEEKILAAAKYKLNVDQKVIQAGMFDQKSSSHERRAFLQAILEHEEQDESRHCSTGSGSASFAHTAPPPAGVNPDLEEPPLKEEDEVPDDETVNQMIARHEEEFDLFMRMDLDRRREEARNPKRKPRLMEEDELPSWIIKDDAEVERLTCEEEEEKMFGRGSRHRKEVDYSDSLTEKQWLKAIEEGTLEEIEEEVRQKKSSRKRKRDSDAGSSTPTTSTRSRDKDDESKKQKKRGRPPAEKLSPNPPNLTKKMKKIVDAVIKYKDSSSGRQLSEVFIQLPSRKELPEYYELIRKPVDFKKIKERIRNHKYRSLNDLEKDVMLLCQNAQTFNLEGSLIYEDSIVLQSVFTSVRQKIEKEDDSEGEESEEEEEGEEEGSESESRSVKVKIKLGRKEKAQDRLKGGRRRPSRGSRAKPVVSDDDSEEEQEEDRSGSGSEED

With `Cc1ncsc1-c1ccc([C@H](C)NC(=O)[C@@H]2C[C@@H](O)CN2C(=O)[C@@H](NC(=O)CN2CCN(c3cc(-c4cccc(F)c4O)nnc3N)CC2)C(C)(C)C)cc1` [Compound 90], the half-inhibitory concentration (IC50) in the assay on NCI-H838 cells and in the assay on NCI-H929 cells was under 1000 nM in each case. At SMARCA2 [1], the “SMARCA2 @ 100 nM (% SMARCA2 degradation)” value is 85%. For the same compound, the “SMARCA2 Percent degradation @ 100 nM” value on SMARCA2 [2] is given as 100%. For the same compound, the SMARCA4 percent degradation at 0.1 µM at SMARCA4 worked out at 101%.
As for `Cc1ncsc1-c1ccc([C@H](C)NC(=O)[C@@H]2C[C@@H](O)CN2C(=O)[C@@H](NC(=O)CN2CCN(c3cc(-c4ccccc4O)nnc3N)CC2)C(C)(C)C)cc1` [Compound 43], the IC50 in the assay with NCI-H838 cells and in the assay on NCI-H929 cells was under 1000 nM throughout. Also, the “SMARCA2 @ 100 nM (% SMARCA2 degradation)” value at SMARCA2 [1] stood at 97%. Moreover, at SMARCA2 [2], the “SMARCA2 Percent degradation @ 100 nM” value was 100%. Moreover, at SMARCA4, the “SMARCA4 Percent degradation @ 100 nM” value was determined as 100%.
As to `Cc1ncsc1-c1ccc([C@H](C)NC(=O)[C@@H]2C[C@@H](O)CN2C(=O)[C@@H](NC(=O)CC2CCN(c3cc(-c4cc(F)ccc4O)nnc3N)CC2)C(C)(C)C)cc1` [Compound 99], the concentration for half-maximal inhibition (IC50) with NCI-H838 cells and with NCI-H929 cells was under 1000 nM in each case. Besides, the “SMARCA2 @ 100 nM (% SMARCA2 degradation)” value on SMARCA2 [1] was 75%. Moreover, the “SMARCA2 Percent degradation @ 100 nM” value at SMARCA2 [2] was 99%. Besides, the SMARCA4 percent degradation at 0.1 µM on SMARCA4 turned out to be 100%.
`O=C(/C=C/N1C[C@H]2C[C@@H]1CN2c1ccccn1)c1ccccc1O` [PFI-3]: the antiproliferative phenotype result in assay [3] is “fails to display an antiproliferative phenotype”.
For the compound `Cc1ncsc1-c1ccc([C@H](C)NC(=O)[C@@H]2C[C@@H](O)CN2C(=O)[C@@H](NC(=O)C(C)N2CCN(c3cc(-c4ccccc4O)nnc3N)CC2)C(C)(C)C)cc1` (single isomer, unassigned) [Compound 58], the IC50 in the assay with NCI-H838 cells was under 1000 nM. Moreover, the “SMARCA2 @ 100 nM (% SMARCA2 degradation)” value on SMARCA2 [1] stood at 71%. On SMARCA2 [2], the “SMARCA2 Percent degradation @ 100 nM” value is 100%. In addition, the SMARCA4 percent degradation at 0.1 µM on SMARCA4 was 100%.
